According to ChEMBL document CHEMBL5385961, “In vitro and in vivo evaluation of novel chromeno[2,3-d]pyrimidinones as therapeutic agents for triple negative breast cancer” (RSC Med Chem, 2024):
Activity calls are given as the source filed them. The calls are words filed in the database; no cut-off is given here.

Tests used:
[1] = organism: Homo sapiens; assay: Selectivity index, ratio of IC50 for human MCF-10A cells to IC50 for human Hs-578T cells
[2] = test system: Hs-578T; assay: Cytotoxicity against human Hs-578T cells assessed as cell viability at 10 uM incubated for 72 hrs by SRB assay relative to control; assay type: functional; settings: read-out: Activity
[3] = test system: Hs-578T; assay: Induction of apoptosis in human Hs-578T cells assessed as increase in caspase-8 protein expression at IC50 measured after 48 hrs by Western blot analysis; assay type: functional, cell-based
[4] = test system: Hs-578T; assay: Cytotoxicity against human Hs-578T cells assessed as reduction in cell proliferation at 0.5 times IC50 measured after 48 hrs by BrdU incorporation assay relative to control; assay type: functional; set-up: scale not given: the % may be the effect or the level left
[5] = test system: Hs-578T; assay: Cytotoxicity against human Hs-578T cells assessed as reduction in cell proliferation at IC50 measured after 24 hrs by BrdU incorporation assay relative to control; assay type: functional; set-up: scale not given: the % may be the effect or the level left
[6] = test system: Hs-578T; assay: Induction of cell cycle arrest in human Hs-578T cells assessed as accumulation of cells at G2/M phase at IC50 measured after 24 hrs by RNase/PI staining based flow cytometry analysis; assay type: functional
[7] = test system: Hs-578T; assay: Induction of cell cycle arrest in human Hs-578T cells assessed as reduction in G0/G1 cell population at IC50 measured after 24 to 48 hrs by RNase/PI staining based flow cytometry analysis; assay type: functional; settings: time 24-48 hrs
[8] = test system: MDA-MB-231; assay: Cytotoxicity against human MDA-MB-231 cells assessed as cell viability at 30 uM incubated for 72 hrs by SRB assay relative to control; assay type: functional; settings: read-out: Activity
[9] = test system: Hs-578T; assay: Antitumor activity against human Hs-578T cells implanted in chick eggs assessed as tumor growth regression at 2 times IC50 administered starting from day 13 and measured 17 days post embryo development by stereomicroscopic analysis; assay type: functional, cell-based; settings: time 5.0 day
[10] = test system: Hs-578T; assay: Cytotoxicity against human Hs-578T cells assessed as reduction in cell proliferation at IC50 measured after 48 hrs by BrdU incorporation assay relative to control; assay type: functional; set-up: scale not given: the % may be the effect or the level left
[11] = test system: MDA-MB-231; assay: Cytotoxicity against human MDA-MB-231 cells assessed as cell viability at 10 uM incubated for 72 hrs by SRB assay relative to control; assay type: functional; settings: read-out: Activity
[12] = test system: Hs-578T; assay: Cytotoxicity against human Hs-578T cells assessed as reduction in cell viability at 10 uM incubated for 72 hrs by SRB assay relative to control; assay type: functional
[13] = test system: Hs-578T; assay: Induction of apoptosis in human Hs-578T cells assessed as increase in late apoptotic cells at IC50 measured after 24 hrs by Annexin V-FITC/PI staining based flow cytometry analysis; assay type: functional, cell-based
[14] = test system: MCF7; assay: Cytotoxicity against human MCF7 cells assessed as cell viability at 10 uM incubated for 72 hrs by SRB assay relative to control; assay type: functional; settings: read-out: Activity
[15] = test system: Hs-578T; assay: Induction of apoptosis in human Hs-578T cells assessed as increase in caspase-9 protein expression at IC50 measured after 24 to 48 hrs by Western blot analysis; assay type: functional, cell-based; settings: time 24-48 hrs
[16] = test system: Hs-578T; assay: Induction of cell cycle arrest in human Hs-578T cells assessed as accumulation of cells at S phase at IC50 measured after 48 hrs by RNase/PI staining based flow cytometry analysis; assay type: functional
[17] = test system: Hs-578T; assay: Induction of cell cycle arrest in human Hs-578T cells assessed as accumulation of cells at S phase at IC50 measured after 24 hrs by RNase/PI staining based flow cytometry analysis; assay type: functional
[18] = test system: Hs-578T; assay: Induction of apoptosis in human Hs-578T cells assessed as reduction in viable cells at IC50 measured after 24 to 48 hrs by Annexin V-FITC/PI staining based flow cytometry analysis; assay type: functional, cell-based; settings: time 24-48 hrs
[19] = Toxicity in wild type Caenorhabditis elegans N2 assessed as effect on food consumption at 0.0001 to 50 uM measured daily for 7 days by food clearance assay; settings: 168 h, dose 0.0001-50 µM, time 7 day
[20] = test system: Hs-578T; assay: Induction of apoptosis in human Hs-578T cells assessed as increase in BAD protein expression at IC50 measured after 24 to 48 hrs by Western blot analysis; assay type: functional, cell-based; settings: time 24-48 hrs
[21] = test system: Hs-578T; assay: Antitumor activity against human Hs-578T cells implanted in chick eggs assessed as regression in tumors' perimeter at 2 times IC50 administered starting from day 13 and measured 17 days post embryo development by stereomicroscopic analysis relative to control; assay type: functional; settings: time 5 day
[22] = Cytotoxicity against human MCF-10A cells assessed as inhibition of cell growth incubated for 72 hrs by SRB assay; assay type: toxicity, cell-based
[23] = test system: Hs-578T; assay: Induction of apoptosis in human Hs-578T cells assessed as increase in caspase-8 protein expression at IC50 measured after 24 hrs by Western blot analysis; assay type: functional, cell-based
[24] = test system: Hs-578T; assay: Induction of apoptosis in human Hs-578T cells assessed as increase in cleaved PARP level at IC50 measured after 24 to 48 hrs by Western blot analysis; assay type: functional, cell-based; settings: time 24-48 hrs
[25] = test system: Hs-578T; assay: Cytotoxicity against human Hs-578T cells assessed as reduction in cell proliferation at 0.5 times IC50 measured after 24 hrs by BrdU incorporation assay relative to control; assay type: functional; set-up: scale not given: the % may be the effect or the level left
[26] = test system: Hs-578T; assay: Induction of apoptosis in human Hs-578T cells assessed as increase in early apoptotic cells at IC50 measured after 24 to 48 hrs by Annexin V-FITC/PI staining based flow cytometry analysis; assay type: functional, cell-based; settings: time 24-48 hrs
[27] = test system: Hs-578T; assay: Induction of apoptosis in human Hs-578T cells assessed as increase in BID protein expression at IC50 measured after 24 to 48 hrs by Western blot analysis; assay type: functional, cell-based; settings: time 24-48 hrs
[28] = test system: MCF7; assay: Cytotoxicity against human MCF7 cells assessed as cell viability at 30 uM incubated for 72 hrs by SRB assay relative to control; assay type: functional; settings: read-out: Activity
[29] = test system: Hs-578T; assay: Cytotoxicity against human Hs-578T cells assessed as inhibition of cell growth incubated for 72 hrs by SRB assay; assay type: functional, cell-based
[30] = test system: Hs-578T; assay: Cytotoxicity against human Hs-578T cells assessed as cell viability at 30 uM incubated for 72 hrs by SRB assay relative to control; assay type: functional; settings: read-out: Activity
[31] = Toxicity in wild type Caenorhabditis elegans N2 assessed as drug tolerance at 0.0001 to 50 uM; settings: dose 0.0001-50 µM

Structure (SMILES): O=c1[nH]c(-c2ccccc2)nc2c1Cc1cc(Br)ccc1O2
- Ratio IC50 [1]: > 12.3
- viability at 10 µM [2]: 40.2%
- Activity [3]: inactive
- Activity [4]: <=50%
- Activity [5]: ~70%
- Activity [6]: inactive
- Activity [7]: Active
- viability at 30 µM [8]: 52.1%
- Activity [9]: Active
- Activity [10]: <=99%
- viability at 10 µM [11]: 62.4%
- Activity [12]: ~50%
- Activity [13]: Active
- viability at 10 µM [14]: 39.2%
- Activity [15]: Active
- Activity [16]: Active
- Activity [17]: inactive
- Activity [18]: Active
- Activity [19]: Non-Toxic
- Activity [20]: Active
- Activity [21]: 6.3%
- IC50 at 72 h [22]: > 60 µM
- Activity [23]: Active
- Activity [24]: Active
- Activity [25]: ~40%
- Activity [26]: Active
- Activity [27]: Active
- viability at 30 µM [28]: 36.7%
- IC50 [29]: 4.5 µM
- viability at 30 µM [30]: 21.1%
- Activity [31]: Non-Toxic
